Reference: patent US20060024691A1, “Novel pathways in the etiology of cancer” (Buck Institute for Age Research, priority 2004, published 2006)
Entries after “also recorded” stand apart in the source; their conditions may differ. Read-outs that look alike come from different tables or passages of the source.

What was measured:
[1] = test system: ERα Ser-118 (67 kD ERα and 52 kD ERα variant); format: cell-based, human; conditions: for Ser-118 phosphorylation of ER induced by treatment: MCF-7/T47D cells, charcoal-stripped media, 30 min, menadione 100 μM, estradiol 10 nM, other quinones at equitoxic doses
Experimental: (§1) Human breast cancer cell lines MCF7 and T47D were obtained from the American Type Culture Collection (ATCC). MCF7 cells were maintained in Dulbecco's Modification of Eagle's Medium (Cellgro) supplemented with 10% fetal bovine serum (Cellgro), 1% penicillin/streptomycin (Cellgro) and 10 μg/ml insulin (Sigma). T47D cells were maintained in RPMI (Cellgro) supplemented with 10% fetal bovine serum, 1% penicillin/streptomycin and 10 μg/ml insulin. Treatment conditions for both cell lines involved plating ˜1×10^6 cells in normal media onto 10 cm dishes, attachment and growth for 24 hours followed by a change to estrogen-free culture conditions (phenol red-free DME H-16 supplemented with 10% charcoal stripped serum, 1% penicillin/streptomycin and 10 μg/ml insulin) for an additional 24 hours. Cells were then treated as indicated for 30 minutes before extract preparation. Indicated conditions involved 30 minute pretreatments.
(§2) Following aspiration of the media and one ice cold PBS wash, cells growing on 10 cm dishes were harvested using a cell scraper and 0.7 ml of ice cold cell lyses buffer ([…], 1.5 mM MgCl2, […] KCl, 1 mM DTT, […] NaFl, 5% glycerol, 0.45% NP40 (Igepal, Sigma) and mincomplete protease inhibitors (Roche)). […] For preparation of high-salt nuclear extracts (nucleoplasm), isolated nuclei were resuspended for 20 minutes in ice cold extraction buffer (0.4 M NaCl, 25 mM Tris pH 7.5, 1 mM DTT, 20% glycerol, 10 mM NaFl and min-complete protease inhibitors (Roche)) followed by a 4° C. centrifugation at 16,000×g for 15 minutes.
(§3) Equal amounts of protein from the various extracts were mixed with 2× SDS sample buffer (125 mM Tris pH6.8, 20% glycerol, 2% SDS, 0.28 M 2-mercaptoethanol and0.5% Bromphenol Blue), heated for 5 minutes at 90° C. and electrophoresed on NuPAGE 4-12% Bis-Tris gels (Invitrogen) using NuPAGE MOPS SDS running buffer (Invitrogen) and full range Rainbow recombinant protein molecular weight markers (Amersham Pharmacia). […] Membranes were then blocked for 30 minutes in blocking buffer (150 mM NaCl, 20 mM Tris pH 7.5, 0.3% Tween-20 and 4% Nonfat dry milk powerby weight).

[2] = test system: ERα Ser-167 (67 kD ERα and 52 kD ERα variant); format: cell-based, human; conditions: MCF7 nuclear extracts, 30 min
Experimental: as §1, §2, §3

[3] = test system: ERα; conditions: estrogen-free culture, 30 min, K3 100 μM, estradiol 10 nM
Experimental: as §1
For preparation of high-salt nuclear extracts (nucleoplasm), isolated nuclei were resuspended for 20 minutes in ice cold extraction buffer (0.4 M NaCl, 25 mM Tris pH 7.5, 1 mM DTT, 20% glycerol, 10 mM NaFl and min-complete protease inhibitors (Roche)) followed by a 4° C. centrifugation at 16,000×g for 15 minutes.

[4] = test system: NF-κB p65; experiment: Nuclear translocation of NF-κB p65 in MCF-7 cultures; format: cell-based, human; conditions: 10 μM, 30 min
[5] = test system: NFκB; experiment: NFκB DNA-binding by EMSA, nuclear extracts of menadione treated MCF-7 cells; format: cell-based, human; conditions: MCF-7, menadione 100 μM × 30 min
Experimental: PS-341 was kindly provided by Millennium Pharmaceuticals Inc. (Cambridge, Mass.). […] For assessment of combined treatment effects on cell viability, 2×10^4 cells (MCF-7, MCF-7/HER2, BT474) grown in 24-well plates were first treated with tamoxifen (dissolved in ethanol) and/or parthenolide (dissolved in DMSO); for the combination treatment pathenolide was added 4 h before addition of tamoxifen. Cell viability was measured 18 h after tamoxifen treatment using the sulforhodamine B (SRB) assay (Skehan, et al. 1990). Briefly, cells fixed with trichloroacetic acid were stained for 30 min with 0.4% SRB dissolved in 1% acetic acid. Unbound dye was removed by four washes with 1% acetic acid, and protein-bound dye was extracted with 10 mM unbuffered Tris base [tris(hydroxymethyl)aminomethane] for determination of optical density at 564 nm.
Fractionation of control and treated cells into cytoplasmic and nuclear extracts was performed as previously described (Dignam et al., 1983), with minor modification. Cells harvested on ice were washed twice with cold PBS, scraped and resuspended in 1.0 ml hypotonic buffer (20 mM HEPES, pH 7.0; 10 mM KCl; 1 mM MgCl2; 0.1% Triton X-100; 20% glycerol; 0.5 mM DTT) containing a cocktail of protease inhibitors (Mini CompleteTM protease inhibitors, Roche Diagnostics, Mannheim, Germany). The harvested cells were Dounce homogenized on ice, the mixture centrifuged at 3,000 rpm at 4° C. (5 min), and the cytoplasmic fraction separated from the nuclear pellet which was resuspended in elution buffer (20 mM HEPES, pH 7.0; 10 mM KCl; 1 mM MgCl2; 0.42 M NaCl; 0.1% Triton X-100; 20% glycerol; 0.5 mM DTT), supplemented with protease inhibitors. After 20 min at 4° C. the buffered mixture was centrifuged at 14,000 rpm at 4° C. (10 min) to obtain solubilized nuclear extracts which were then stored in aliquots at −80° C. after protein determination (Bradford; BioRad, Hercules, Calif.) and for subsequent NFkB DNA-binding assays.
NFκB DNA-binding activity was measured by two different techniques. Analogous to previous tumor extract scoring of Sp1 DNA-binding protein (Quong et al., 2002), total specific NFκB DNA-binding protein was determined by electrophoretic morbility shift assay (EMSA) as follows. A duplexed oligonucleotide probe (Promega, Madison, Wis.) with sense strand containing the decameric κB consensus binding sequence (underlined) 5′-[…]-3′(SEQ ID NO:4) was end-labeled with [γ-P32]ATP (PerkinElmer, Boston, Mass.) using T4 polynucleotide kinase (Promega, Madison, Wis.) and purified with G-50 Sephadex Bio-Spin columns (BioRad, Hercules, Calif.). […]

## CC1=CC(=O)c2ccccc2C1=O [menadione, 2-methyl-1,4-naphthoquinone]
[1]
  Ser-118 phosphorylation of ER induced by treatment: induced Ser-118 phosphorylation
[1]; listed as K3
  Ser-118 phosphorylation of ER induced by treatment: contained both 67 kD and 52 kD p-Ser-118 ERα
[1]; menadione exposures 4-6 hr
  ER isoform activation on longer exposure: further enhanced activation of the ˜52 kDa delta7 ER isoform while diminishing that of 67 kDa ER
[2]
  Ser-167 phosphorylation of ERα induced by treatment: Ser-167 phosphorylation only on the 52 kD ERα nuclear variant
[3]
  nuclear translocation of ERα: nuclear translocation of 67 kDa (wild-type) ER
[3]; listed as K3
  nuclear translocation of ERα: majority of this cytoplasmic ERα has translocated to the nucleus
[4]
  increase in nuclear translocation of NF-κB p65 vs control treated cells: > 3 fold
[5]
  NFκB activation after menadione treatment (EMSA): increase in MCF-7 NFκB activation; also recorded: significantly increase MCF-7 NFκB activity
